Data as given in the supplement of paper PMC11061612.

Columns and labels:
Assay in all cases: combination Emax (second highest fraction inhibited in the dose matrix, 72 h); higher = more inhibition; extreme values may be limits of the assay
[1] = test system: A549 (Lung Adenocarcinoma)
How it was run: (§1)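 Cell lines in DMEM/F12 or RPMI with 10% FBS were plated in 1536-well plates, held 24 hours at 37°C, 5% CO2, then given two-drug dose matrices for 72 hours (DMSO typically 0.2%). Viability was read by CellTiter-Glo 2.0 luminescence and scaled as inhibition from 0 (vehicle wells) to 1 (blank wells). Combination Emax is the second-highest inhibition in the matrix; Bliss excess is observed combination effect minus expected EA + EB − EA·EB, EA and EB being single-agent effects.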

[2] = test system: BICR22 (Oral Cavity Carcinoma)
How it was run: as §1

[3] = test system: CAPAN-2 (Pancreatic Carcinoma)
How it was run: as §1

CAS-1 (Glioblastoma) = test system: CAS-1 (Glioblastoma)
How it was run: as §1

[4] = test system: COLO-320-HSR (Colorectal Carcinoma)
How it was run: as §1

[5] = test system: COR-L311 (Small Cell Lung Carcinoma)
How it was run: as §1

[6] = test system: ECC10 (Gastric Carcinoma)
How it was run: as §1

FU97 (Gastric Carcinoma) = test system: FU97 (Gastric Carcinoma)
How it was run: as §1

[7] = test system: HCC1954 (Breast Carcinoma)
How it was run: as §1

[8] = test system: KARPAS-422 (B-Cell Non-Hodgkin's Lymphoma)
How it was run: as §1

LN-405 (Glioblastoma) = test system: LN-405 (Glioblastoma)
How it was run: as §1

[9] = test system: NCI-H1650 (Lung Adenocarcinoma)
How it was run: as §1

[10] = test system: NCI-H2066 (Squamous Cell Lung Carcinoma)
How it was run: as §1

[11] = test system: NCI-H64 (Small Cell Lung Carcinoma)
How it was run: as §1

[12] = test system: ONS-76 (Other Solid Carcinomas)
How it was run: as §1

[13] = test system: OS-RC-2 (Kidney Carcinoma)
How it was run: as §1

PA-1 (Ovarian Carcinoma) = test system: PA-1 (Ovarian Carcinoma)
How it was run: as §1

[14] = test system: SK-MES-1 (Squamous Cell Lung Carcinoma)
How it was run: as §1

[15] = test system: TT2609-C02 (Thyroid Gland Carcinoma)
How it was run: as §1

U-2-OS (Osteosarcoma) = test system: U-2-OS (Osteosarcoma)
How it was run: as §1

SMILES | combination Emax [1] | combination Emax [2] | combination Emax [3] | combination Emax (CAS-1 (Glioblastoma)) | combination Emax [4] | combination Emax [5] | combination Emax [6] | combination Emax (FU97 (Gastric Carcinoma)) | combination Emax [7] | combination Emax [8] | combination Emax (LN-405 (Glioblastoma)) | combination Emax [9] | combination Emax [10] | combination Emax [11] | combination Emax [12] | combination Emax [13] | combination Emax (PA-1 (Ovarian Carcinoma)) | combination Emax [14] | combination Emax [15] | combination Emax (U-2-OS (Osteosarcoma))
COc1nnc2ccc(N3CCC(c4ccc(OCCN5CCN(C)C(=O)[C@H]5C)cc4)CC3)nn12 [AZD5153] + CC1(C)CCC(CN2CCN(c3ccc(C(=O)NS(=O)(=O)c4ccc(NCC5CCOCC5)c([N+](=O)[O-])c4)c(Oc4cnc5[nH]ccc5c4)c3)CC2)=C(c2ccc(Cl)cc2)C1 [Venetoclax] (first compound max 1 µM, 7x7, partner max 1 µM) | 0.707 | 0.235 | 0.299 | 0.622 | 0.442 | 0.934 | 0.985 | 0.754 | 0.152 | 0.948 | 0.441 | 0.394 | 0.338 | 0.226 | 0.538 | 0.273 | 0.862 | 0.472 | 0.376 | 0.321
COc1nnc2ccc(N3CCC(c4ccc(OCCN5CCN(C)C(=O)[C@H]5C)cc4)CC3)nn12 [AZD5153] + CCN(CCO)CCCOc1ccc2c(Nc3cc(CC(=O)Nc4cccc(F)c4)[nH]n3)ncnc2c1 [AZD2811] (first compound max 1 µM, 7x7, partner max 1 µM) | 0.834 | 0.463 | 0.296 | 0.646 | 0.503 | 0.936 | 0.884 | 0.766 | 0.263 | 0.676 | 0.515 | 0.415 | 0.344 | 0.609 | 0.56 | 0.304 | 0.904 | 0.507 | 0.492 | 0.405
COc1nnc2ccc(N3CCC(c4ccc(OCCN5CCN(C)C(=O)[C@H]5C)cc4)CC3)nn12 [AZD5153] + C[C@@H]1COCCN1C2=NC(=NC(=C2)C3(CC3)[S@](=N)(=O)C)C4=C5C=CNC5=NC=C4 [AZD6738] (first compound max 1 µM, 7x7, partner max 10 µM) | 0.912 | 0.709 | 0.379 | 0.712 | 0.719 | 0.95 | 0.916 | 0.839 | 0.657 | 0.887 | 0.53 | 0.509 | 0.41 | 0.927 | 0.747 | 0.467 | 0.973 | 0.769 | 0.521 | 0.589
COc1nnc2ccc(N3CCC(c4ccc(OCCN5CCN(C)C(=O)[C@H]5C)cc4)CC3)nn12 [AZD5153] + Cc1c2c(nn1C)CSCc1cc(n(C)n1)CSc1cc(c3ccccc3c1)OCCCc1c(C(=O)O)n(C)c3c-2c(Cl)ccc13 [AZD5991] (first compound max 1 µM, 7x7, partner max 1 µM) | 0.821 | 0.901 | 0.296 | 0.64 | 0.89 | 0.971 | 1 | 0.95 | 0.956 | 0.991 | 0.574 | 0.441 | 0.35 | 0.399 | 0.497 | 0.372 | 1 | 0.558 | 0.454 | 0.418
COc1nnc2ccc(N3CCC(c4ccc(OCCN5CCN(C)C(=O)[C@H]5C)cc4)CC3)nn12 [AZD5153] + Cn1cnc2c(F)c(Nc3ccc(Br)cc3Cl)c(C(=O)NOCCO)cc21 [Selumetinib] (first compound max 1 µM, 7x7, partner max 10 µM) | 0.917 | 0.564 | 0.452 | 0.599 | 0.333 | 0.847 | 0.955 | 0.701 | 0.263 | 0.68 | 0.332 | 0.441 | 0.345 | 0.237 | 0.697 | 0.343 | 0.91 | 0.717 | 0.652 | 0.628
Cc1c2c(nn1C)CSCc1cc(n(C)n1)CSc1cc(c3ccccc3c1)OCCCc1c(C(=O)O)n(C)c3c-2c(Cl)ccc13 [AZD5991] + C1CN(CCC1(C(=O)N[C@@H](CCO)C2=CC=C(C=C2)Cl)N)C3=NC=NC4=C3C=CN4 [Capivasertib] (first compound max 1 µM, 7x7, partner max 3 µM) | 0.379 | 0.689 | 0.227 | 0.573 | 0.845 | 0.718 | 0.721 | 0.485 | 0.996 | 0.994 | 0.404 | 0.41 | 0.424 | 0.378 | 0.249 | 0.256 | 0.947 | 0.262 | 0.227 | 0.219
Cc1c2c(nn1C)CSCc1cc(n(C)n1)CSc1cc(c3ccccc3c1)OCCCc1c(C(=O)O)n(C)c3c-2c(Cl)ccc13 [AZD5991] + C=CCn1c(=O)c2cnc(Nc3ccc(N4CCN(C)CC4)cc3)nc2n1-c1cccc(C(C)(C)O)n1 [AZD1775] (first compound max 1 µM, partner max 1 µM) | 0.425 | 0.717 | 0.428 | 0.852 | 0.801 | 0.812 | 0.858 | 0.436 | 0.978 | 0.965 | 0.55 | 0.548 | 0.256 | 0.933 | 0.584 | 0.303 | 0.937 | 0.593 | 0.617 | 0.809
Cc1c2c(nn1C)CSCc1cc(n(C)n1)CSc1cc(c3ccccc3c1)OCCCc1c(C(=O)O)n(C)c3c-2c(Cl)ccc13 [AZD5991] + CC1(C)CCC(CN2CCN(c3ccc(C(=O)NS(=O)(=O)c4ccc(NCC5CCOCC5)c([N+](=O)[O-])c4)c(Oc4cnc5[nH]ccc5c4)c3)CC2)=C(c2ccc(Cl)cc2)C1 [Venetoclax] (first compound max 1 µM, 7x7, partner max 1 µM) | 0.216 | 0.727 | 0.153 | 0.286 | 0.841 | 0.938 | 1 | 0.243 | 0.967 | 1 | 0.425 | 0.184 | 0.169 | 0.359 | 0.211 | 0.133 | 0.964 | 0.146 | 0.178 | 0.271
Cc1c2c(nn1C)CSCc1cc(n(C)n1)CSc1cc(c3ccccc3c1)OCCCc1c(C(=O)O)n(C)c3c-2c(Cl)ccc13 [AZD5991] + CCN(CCO)CCCOc1ccc2c(Nc3cc(CC(=O)Nc4cccc(F)c4)[nH]n3)ncnc2c1 [AZD2811] (first compound max 1 µM, 7x7, partner max 1 µM) | 0.41 | 0.675 | 0.239 | 0.705 | 0.827 | 0.906 | 0.957 | 0.284 | 0.98 | 0.981 | 0.437 | 0.269 | 0.304 | 0.788 | 0.386 | 0.21 | 0.932 | 0.408 | 0.456 | 0.307
Cc1c2c(nn1C)CSCc1cc(n(C)n1)CSc1cc(c3ccccc3c1)OCCCc1c(C(=O)O)n(C)c3c-2c(Cl)ccc13 [AZD5991] + CN(C)CCCOc1ccc(-c2ccc3ncc4c(c3c2)n(C2CCOCC2)c(=O)n4C)cn1 [AZD0156] (first compound max 1 µM, 7x7, partner max 1 µM) | 0.323 | 0.323 | 0.276 | 0.532 | 0.888 | 0.433 | 0.66 | 0.318 | 0.978 | 0.982 | 0.376 | 0.2 | 0.234 | 0.346 | 0.239 | 0.25 | 0.855 | 0.196 | 0.212 | 0.263
Cc1c2c(nn1C)CSCc1cc(n(C)n1)CSc1cc(c3ccccc3c1)OCCCc1c(C(=O)O)n(C)c3c-2c(Cl)ccc13 [AZD5991] + C[C@@H]1COCCN1C2=NC(=NC(=C2)C3(CC3)[S@](=N)(=O)C)C4=C5C=CNC5=NC=C4 [AZD6738] (first compound max 1 µM, 7x7, partner max 10 µM) | 0.726 | 0.846 | 0.35 | 0.877 | 0.97 | 0.752 | 0.766 | 0.392 | 0.991 | 1 | 0.668 | 0.516 | 0.359 | 0.905 | 0.821 | 0.363 | 0.967 | 0.785 | 0.392 | 0.599
Cc1c2c(nn1C)CSCc1cc(n(C)n1)CSc1cc(c3ccccc3c1)OCCCc1c(C(=O)O)n(C)c3c-2c(Cl)ccc13 [AZD5991] + C[C@@H](Nc1cc(F)cc(F)c1)c1cc(C(=O)N(C)C)cc2c(=O)cc(N3CCOCC3)oc12 [AZD8186] (first compound max 1 µM, 7x7, partner max 3 µM) | 0.476 | 0.537 | 0.252 | 0.467 | 0.907 | 0.508 | 0.721 | 0.445 | 0.974 | 0.94 | 0.572 | 0.297 | 0.343 | 0.406 | 0.244 | 0.471 | 0.964 | 0.381 | 0.303 | 0.238
